Residues, ends and D or L forms follow the SMILES beside them. *: point of attachment. Lauroyl = CCCCCCCCCCCC(=O)*
Columns and labels:
[1] = Small angle X-ray scattering (SAXS) of nanostructures; format: physicochemical
Procedure: Small angle X-ray scattering (SAXS) experiments were performed at the Advanced Photon Source, Argonne National Laboratory. The X-ray energy (15 keV) was selected using a double-crystal monochromator with a 30 mm offset. Samples were dissolved at a concentration of 5 mM in PBS and placed in 1.5 mm quartz capillary tubes. The typical incident X-ray flux on the sample was ˜1×10^12 photons/s with a 0.2×0.3 mm^2 collimator, and samples were exposed for 4 s. The 1D scattering profiles were obtained by azimuthal integration of the 2D patterns, with scattering from the capillaries and PBS buffer subtracted as background. Scattering profiles were then plotted on a relative scale as a function of the scattering vector q=(4π/λ) sin(θ/2), where θ is the scattering angle.

[2] = Procedure: Adult male Sprague-Dawley rats weighing 350 to 400 g underwent midline neck incision with exposure of internal jugular vein. Targeted nanofiber 2.5 mg was dissolved in 1.0 mL of HBBS and injected within the internal jugular vein using 25 G needle. After complete injection, needle was withdrawn, pressure held at the injection site for 1 minute and the neck incision was closed. Rats were euthanized at 10, 15, 30, 60 min, 4, 16 hours, 4 and 6 days post injection and viscera (liver, lung, kidney and spleen) were harvested.
Carotid arteries and viscera were harvested after in-situ perfusion-fixation with PBS (250 mL) and placed in 2% paraformaldehyde overnight.

| Molecule | self-assembly by SAXS [1] | earliest time fluorescence present within the kidneys ([2]; 2.5 mg internal jugular vein) [min] | fluorescence in the kidneys over time ([2]; 2.5 mg internal jugular vein) | fluorescence in the liver over time ([2]; 2.5 mg internal jugular vein) | latest time fluorescence present within the kidneys ([2]; 2.5 mg internal jugular vein) [days] | fluorescence within the liver and kidneys ([2]; 2.5 mg internal jugular vein, 10 min to 6 days) | fluorescence in the brain, heart, intestine and lungs ([2]; any of the time points) |
| --- | --- | --- | --- | --- | --- | --- | --- |
| KLWVLPKC | did not display any evidence of self-assembly |  |  |  |  |  |  |
| CCCCCCCCCCCC(=O)NCCCC[C@H](NC(=O)[C@@H](NC(=O)[C@@H](NC(=O)[C@H](C)NC(=O)[C@H](C)NC(=O)[C@H](CCCCN)NC(=O)[C@H](CCCCN)NC(=O)[C@H](CS)NC(=O)[C@H](CCCCN)NC(=O)[C@@H]1CCCN1C(=O)[C@H](CC(C)C)NC(=O)[C@H](Cc1c[nH]c2ccccc12)NC(=O)[C@@H](NC(=O)[C@H](CC(C)C)NC(=O)[C@@H](N)CCCCN)C(C)C)C(C)C)C(C)C)C(=O)O [targeted nanofiber, KLVWLPKCK2A2V2K(C12)] (H-KLVWLPKCKKAAVVK(Lauroyl)-OH; N-terminus and C-terminus assumed) |  | 10 | increasing fluorescence | Decreasing fluorescence | 6 | Fluorescence was observed | no fluorescence detected |
